Assay results taken from patent US8609870B2, “Treating various disorders using TrkB agonists” (Emory University, priority 2008, dated 2013).

Assays:
TrkA = TrkA (Homo sapiens, UniProt P04629); test: [3H]-deoxygedunin ligand binding assay, TrkA
[1] = molecular target: TrkB intra-cellular domain (ICD) (Homo sapiens, UniProt Q16620); test: [3H]-deoxygedunin ligand binding assay, TrkB ICD; details: increasing concentrations of radioligand
Protocol: (§1) Purified TrkB ECD or ICD proteins (10 μg/each) were incubated with different [^3H-deoxygedunin] in 1 ml binding buffer (0.05 M Na/K phosphate buffer (pH 7.1), 200 mM NaCl) (1 nM [^3H]deoxygedunin˜82300 cpm) at 4° C. for 10 minutes. After incubation, the reaction mixture was loaded on filter paper and washed with 3×5 ml Tris buffer (100 mM Tris, pH 7.1). The dried filter paper was put into a small vial and subjected to liquid scintillation counter analysis. The value of the dissociation constant and the number of sites were obtained from Scatchard plots by using the equation r/[L]free=n/Kd−r/Kd, where r is the ratio of the concentration of bound ligand to the total protein concentration and n is the number of binding sites.
To determine whether an identified active compound physically and directly binds to the TrkB receptor, in vitro binding assays can be conducted with purified TrkB extracellular domain (ECD) and intracellular domain (ICD) recombinant proteins. Purified TrkB ECD and ICD (10 μg of each) are incubated with different concentrations of ^3H-labeled identified active compound in 1 ml of binding buffer (0.05M Na/K phosphate buffer, pH 7.1, 200 mM NaCl) at 4° C. for 10 minutes. After the incubation, the reaction mixture is loaded on filter paper. […]

[2] = molecular target: TrkB extra-cellular domain (ECD) (Homo sapiens, UniProt Q16620); test: [3H]-deoxygedunin ligand binding assay, TrkB ECD (Scatchard plot); details: increasing concentrations of radioligand
Sequence of TrkB extra-cellular domain (ECD) (Q16620 32-430 limits assumed): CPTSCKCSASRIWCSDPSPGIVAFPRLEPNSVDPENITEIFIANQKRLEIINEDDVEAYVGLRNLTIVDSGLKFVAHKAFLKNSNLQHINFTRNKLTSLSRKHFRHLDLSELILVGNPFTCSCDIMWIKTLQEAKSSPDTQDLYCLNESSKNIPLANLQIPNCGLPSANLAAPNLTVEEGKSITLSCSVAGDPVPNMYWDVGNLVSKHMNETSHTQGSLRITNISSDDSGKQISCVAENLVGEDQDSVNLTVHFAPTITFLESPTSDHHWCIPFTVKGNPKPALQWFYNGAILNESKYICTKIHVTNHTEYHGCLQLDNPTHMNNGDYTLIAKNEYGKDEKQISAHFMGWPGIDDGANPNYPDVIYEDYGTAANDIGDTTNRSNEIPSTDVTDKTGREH
Protocol: as §1
To determine whether an identified active compound physically and directly binds to the TrkB receptor, in vitro binding assays can be conducted with purified TrkB extracellular domain (ECD) and intracellular domain (ICD) recombinant proteins. Purified TrkB ECD and ICD (10 μg of each) are incubated with different concentrations of ^3H-labeled identified active compound in 1 ml of binding buffer (0.05M Na/K phosphate buffer, pH 7.1, 200 mM NaCl) at 4° C. for 10 minutes. After the incubation, the reaction mixture is loaded on filter paper. The mixture is washed three times with Tris buffer (100 mM Tris, pH 7.1), and the dried filter paper is put into a small vial and subjected to liquid scintillation counter analysis. […] The value of the dissociate constant and the number of sites will then be obtained from Scatchard plots using the equation r/[L]free=n/Kd−r/Kd, where r is the ratio of the concentration of bound ligand to the total protein concentration and n is the number of binding sites.
To determine whether deoxygedunin binds the intra-cellular domain (ICD) or extra-cellular domain (ECD) of the TrkB receptor, ligand binding assays with [^3H]-deoxygedunin were performed. […] The coprecipitated HA-TrkB was also prominently tyrosine phosphorylated (see FIG. 14, 3rd panel).

hippocampal neurons [3] = test: Oxygen-glucose deprivation (OGD) apoptosis in hippocampal neurons; type: cell-based; details: apoptotic ratio compared to BDNF and DMSO
hippocampal neurons [4] = test: Glutamate-triggered apoptosis in hippocampal neurons (MR(DEVD)2 / condensed nuclei); type: cell-based; details: 0.5 μM preincubated 30 min, then 50 μM glutamate 16 h
Protocol: To create and test reporter cell lines. In order to identify small molecules that mimic BDNF and activate TrkB, TrkB stably transfected murine cell lines are created. The T48 and T62 cell lines are created by transfecting basal forebrain SN56 cells, which express negligible TrkB, with a TrkB expression construct. To test expression of TrkB, the cells are treated with BDNF, which is predicted to result in strong phosphorylation of Trk-490 and Akt activation in comparison to the TrkA NTR stably expressing T17 cell line indicating expression of TrkB. To test resistance to apoptosis, the SN56 cells and the T48 cell line are either untreated or treated with BDNF, and then are subjected to an apoptotic assay. The apoptotic assay involves treating the cells with 0.75 μM Staurosporine for 9 hours, and 1 hour before completing the experiment, the cells are treated with 10 μM MR (DEVD)2. The cells then are fixed with 4% paraformaldehyde for 15 minutes, washed with phosphate buffered saline (PBS), and incubated with Hoechst 33342 for 10 minutes. Cover slides are washed with PBS, mounted, and then the cells are examined using a fluorescent microscope to see which cells turn red upon caspase cleavage.
To compare the apoptosis inhibitory activity of identified active compounds, the compounds are preincubated with SN56 and T48 cells, and subsequently are subjected to the fluorescent apoptotic assay as described above. To examine whether these identified active compounds promote neuronal survival, hippocampal neurons are prepared and the cultures are pretreated with the identified active compounds for 30 minutes, followed by treatment with 50 μM glutamate for 16 hours.
Using a cell-based screen as described above in Example 1 (based on the anti-apoptotic action of TrkB signaling) and the chemical library from the Spectrum Collection (described above), 66 positive hits were generated, four of which were gedunin derivatives. […] In this assay, neurons with both cleaved caspase (MR (DEVD)2 red cells) and condensed nuclei (DAPI staining) were counted as apoptotic cells. […]

TrkB = molecular target: T1, TrkB (Homo sapiens, UniProt Q16620); test: TrkB dimerization assay (GST pull-down, transfected HEK293 cells); type: cell-based
T1 construct: expressed in transfected cells; host or cells: HEK293
T1 sequence (Q16620 32-822, species assumed): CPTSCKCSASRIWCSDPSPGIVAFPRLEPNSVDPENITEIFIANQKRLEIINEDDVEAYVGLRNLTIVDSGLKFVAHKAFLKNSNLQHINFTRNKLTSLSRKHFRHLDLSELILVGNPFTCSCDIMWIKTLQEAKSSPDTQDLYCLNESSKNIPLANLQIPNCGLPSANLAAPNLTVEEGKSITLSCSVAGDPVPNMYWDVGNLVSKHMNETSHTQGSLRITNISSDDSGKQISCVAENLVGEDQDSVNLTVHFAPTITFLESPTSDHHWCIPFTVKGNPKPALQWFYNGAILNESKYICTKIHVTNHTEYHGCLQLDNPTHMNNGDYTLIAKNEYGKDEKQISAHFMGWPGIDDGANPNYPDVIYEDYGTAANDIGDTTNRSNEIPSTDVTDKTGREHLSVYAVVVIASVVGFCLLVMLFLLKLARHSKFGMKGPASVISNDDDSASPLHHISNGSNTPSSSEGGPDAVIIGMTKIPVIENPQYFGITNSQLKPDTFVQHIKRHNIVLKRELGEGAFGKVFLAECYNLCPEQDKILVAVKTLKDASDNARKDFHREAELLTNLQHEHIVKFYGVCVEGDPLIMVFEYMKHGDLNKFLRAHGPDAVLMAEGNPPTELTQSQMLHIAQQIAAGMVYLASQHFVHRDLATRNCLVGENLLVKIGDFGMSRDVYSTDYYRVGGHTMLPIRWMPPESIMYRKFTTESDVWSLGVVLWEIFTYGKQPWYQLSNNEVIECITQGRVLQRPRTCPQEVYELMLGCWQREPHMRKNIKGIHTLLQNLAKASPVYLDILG
T1 sequence (Q16620 32-822, species assumed): as above
Protocol: HEK293 cells transfected with GST-TrkB and HA-TrkA or TrkB were washed once in PBS, and lysed in 1 ml lysis buffer (50 mM Tris, pH 7.4, 150 mM NaCl, 1 mM EDTA, 0.5% Triton X-100, 1.5 mM Na3VO4, 50 mM NaF, 10 mM sodium pyrophosphate, 10 mM sodium β-glycerophosphate, 1 mM phenylmethylsulfonyl fluoride (PMSF), […], […] leupeptin, […] pepstatin A), and centrifuged for 10 minutes at 14,000×g at 4° C. The supernatant was then transferred to a fresh tube and transfected TrkB receptor was pulled down with glutathione beads. The coprecipitated proteins were resolved on SDS-PAGE. The samples were transferred to a nitrocellular membrane, and immunoblotting analysis was performed with a variety of antibodies.
BDNF is known to bind the TrkB receptor and provoke its dimerization (Barbacid, J. Neurobiol., 25:1386-1403, 1994; Klein et al, Cell, 66:395-403, 1991). To explore whether an identified active compound triggers TrkB receptor dimerization, HEK293 cells are cotransfected with GST-TrkB and HA-TrkB or HA-TrkA. The cells then are treated with BDNF or an identified active compound (0.5 μM) for 30 minutes. […]

Sequence of TrkA (P04629 33-796, species assumed): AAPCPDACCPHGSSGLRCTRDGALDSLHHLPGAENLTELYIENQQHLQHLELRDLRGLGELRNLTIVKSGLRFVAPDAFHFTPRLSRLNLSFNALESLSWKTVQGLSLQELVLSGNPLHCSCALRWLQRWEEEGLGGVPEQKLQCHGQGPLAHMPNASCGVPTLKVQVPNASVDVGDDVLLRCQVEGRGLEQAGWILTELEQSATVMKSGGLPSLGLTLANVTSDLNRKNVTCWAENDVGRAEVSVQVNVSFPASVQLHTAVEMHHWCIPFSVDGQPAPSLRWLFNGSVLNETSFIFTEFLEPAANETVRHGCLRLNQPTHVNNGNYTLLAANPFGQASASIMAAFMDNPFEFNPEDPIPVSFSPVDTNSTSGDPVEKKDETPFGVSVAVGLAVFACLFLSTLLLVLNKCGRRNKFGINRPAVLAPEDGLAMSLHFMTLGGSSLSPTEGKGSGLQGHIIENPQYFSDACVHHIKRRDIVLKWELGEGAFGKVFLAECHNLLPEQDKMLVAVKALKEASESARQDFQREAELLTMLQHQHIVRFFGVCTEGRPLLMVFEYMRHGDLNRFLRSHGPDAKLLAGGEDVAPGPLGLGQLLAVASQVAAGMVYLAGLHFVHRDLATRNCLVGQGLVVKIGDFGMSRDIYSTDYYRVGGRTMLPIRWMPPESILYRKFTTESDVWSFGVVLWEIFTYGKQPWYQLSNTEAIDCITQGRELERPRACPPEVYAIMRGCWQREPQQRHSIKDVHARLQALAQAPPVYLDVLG
Sequence of TrkB intra-cellular domain (ICD) (Q16620 455-822 limits assumed): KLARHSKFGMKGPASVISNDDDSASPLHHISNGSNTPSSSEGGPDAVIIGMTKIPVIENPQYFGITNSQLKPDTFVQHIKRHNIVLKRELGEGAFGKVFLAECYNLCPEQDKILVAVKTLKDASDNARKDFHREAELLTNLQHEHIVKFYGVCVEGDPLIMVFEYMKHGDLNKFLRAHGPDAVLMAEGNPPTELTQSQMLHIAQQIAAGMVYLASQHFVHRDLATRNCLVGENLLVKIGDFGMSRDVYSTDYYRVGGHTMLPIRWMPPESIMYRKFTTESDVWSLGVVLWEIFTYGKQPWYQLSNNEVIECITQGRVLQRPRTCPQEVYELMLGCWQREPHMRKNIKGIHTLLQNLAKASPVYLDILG

32-[^3H]3-deoxygedunin [[^3H]-deoxygedunin]
binding to TrkA (TrkA): did not bind to TrkA
binding to TrkB ICD [1]: not the intra-cellular domain (ICD)
binding to TrkB ECD [2]: progressively bound

CC(=O)O[C@@H]1CC2C(C)(C)[C@H](O)CC[C@]2(C)C2CC[C@@]3(C)[C@H](c4ccoc4)OC(=O)C4OC43[C@@]21C (stereo partly drawn) [alpha-dihydrogedunol (epoxy ring down), alphadihydrogedunol (epoxy ring down)]
protective effects on hippocampal neurons under OGD (hippocampal neurons [3]): potent protective effects
protective effect (apoptosis inhibitory activity) (hippocampal neurons [4]): protective effect
TrkB dimerization (TrkB): notably promoted TrkB dimerization
